In US20210276960A1, “INHIBITORS OF TISSUE TRANSGLUTAMINASE 2 (TG2) AND USES THEREOF” (Northwestern University, priority 2020, published 2021):

Assays:
OVCAR5 cells = experiment: Sphere forming assay after priming, with paclitaxel; type: cell-based, human; details: priming with 1 μM, with 5 nM PTX
Experimental: After 72 h priming with either 1 μM MT-4, TG53 or vehicle (DMSO), 150 OVCAR5 cells were seeded in 60 mm dishes and treated or not with paclitaxel (PTX, Sigma). Colonies were allowed to form over 10 days, fixed in 4% PFA and stained with 0.4% crystal violet (MP Biomedicals). Colonies were counted, and analysis was performed using the ImageJ software ([…]).Spheroid cultures were carried out as previously described(Condello et al., 2015). Briefly, OC cells were resuspended in Mammocult complete medium (StemCell Technologies) supplemented with Mammocult Proliferation Supplements, heparin and hydrocortisone (StemCell Technologies) and seeded at a concentration of 10,000 cells/well in 96-well ultra-low attachment plates (Corning, Corning, N.Y., USA). After treatment with DMSO (control) or TG53 (1 μM) for 7 days, spheroids were counted and quantified by the CCK-8 assay. All assays were performed in four replicates and were repeated. For priming before PTX treatment, cells were manipulated as described for CFU assay and then seeded in 6-well low-attachment plate (Corning, #3473) at 7000 cells/mL/well and allowed to form spheroids in complete Mammocult media. Spheres were counted after ten days from 4 replicate wells. Two independent experiments were performed.

[1] = tested on: OVCAR433 cells adhesion onto LP9 monolayers; experiment: Cell adhesion to LP9 mesothelial monolayers, OVCAR433; type: cell-based; details: at concentrations >10 μM
Experimental: LP9 mesothelial cells added to clear-bottom 96-well plate at 12,000 cells/well were grown to confluency over 48 hours (h). OC cells were labeled with calcein AM and seeded at a density of 4×10^4 cells to monolayers of mesothelial cells and incubated for 1 h. Non-adherent cells were removed by washing with PBS.

SKOV3 cells = experiment: Wound-healing assay, SKOV3; type: cell-based; details: 8 μM, 24 hours
Experimental: Wound Healing was Performed in 12-Well Plates Coated with 1 μg/Ml FN (Sigma, #1141) overnight at 4° C. OC cells were plated at a density of 2×10^5 cells/well in media containing 2% FBS. Under these conditions cells adhered on substrate, but cell proliferation was minimized. After 16 hours, the cell monolayer was scraped in straight line. Cell debris was removed and serum free media containing selected SMIs or control was replenished. For consistency during image acquisition, a reference point was marked close to the scratch mark and the plate was imaged under phase-contrast microscope at 0, 2, 6, 12 and 24 hours. Wound closure was assessed as the distance between the wound edges, calculated and quantified using the Image Pro-Express software. The percentage of wound closure was evaluated using the formula […]. The rate of migration (μm/h) of OC cells into the wound space was evaluated as the distance difference between wound edges at 0 and 24 h, divided by 24. The experiments were performed in duplicates.

purified TG2 = biological target: T1, purified TG2 (UniProt P08587); details: not shown, see ref 11; cited from earlier work
T1 construct: purchased Sigma T5398
T1 sequence (P08587 whole entry): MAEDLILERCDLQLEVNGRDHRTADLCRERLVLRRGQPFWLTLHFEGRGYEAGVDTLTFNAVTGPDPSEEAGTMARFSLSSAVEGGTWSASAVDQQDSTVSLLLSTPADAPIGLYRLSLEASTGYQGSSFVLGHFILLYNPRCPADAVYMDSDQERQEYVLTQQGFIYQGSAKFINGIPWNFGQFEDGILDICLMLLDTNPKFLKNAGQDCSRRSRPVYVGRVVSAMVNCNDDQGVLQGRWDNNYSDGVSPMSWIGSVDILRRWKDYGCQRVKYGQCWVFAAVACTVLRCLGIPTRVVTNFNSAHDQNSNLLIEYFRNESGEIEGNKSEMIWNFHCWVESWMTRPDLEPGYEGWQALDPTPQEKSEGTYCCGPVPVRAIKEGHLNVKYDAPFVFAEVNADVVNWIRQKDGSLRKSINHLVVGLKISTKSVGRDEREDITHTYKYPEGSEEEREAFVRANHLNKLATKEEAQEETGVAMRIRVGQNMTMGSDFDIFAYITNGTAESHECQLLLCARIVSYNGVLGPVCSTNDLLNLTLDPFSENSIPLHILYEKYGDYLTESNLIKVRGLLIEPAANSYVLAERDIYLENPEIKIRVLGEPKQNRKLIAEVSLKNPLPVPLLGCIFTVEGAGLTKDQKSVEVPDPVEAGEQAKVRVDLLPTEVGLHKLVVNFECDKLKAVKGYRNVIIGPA

[2] = tested on: TG2 co-localization with integrin β1, p-FAK, c-Src, p-c-Src in SKOV3 cells; experiment: Confocal IF co-localization analysis; type: cell-based; details: 1 μM
Experimental: In order to analyze cell adhesion complex proteins expression and localization upon early attachment, cells were treated as stated above and then seeded onto FN-coated cover slips for 30 minutes at 37° C. Samples were fixed in 4% p-formaldehyde (PFA) and permeabilized with 0.2% Triton-X-100. After blocking, focal contacts were identified by using anti-vinculin antibodies, activation of integrins signaling pathway was assessed by antibodies against phosphorylated focal adhesion kinase (FAK), while actin cytoskeleton was labeled by Alexa Fluor 488-conjugated phalloidin (Life Technologies, #A12379). Nuclei were stained with 1:10000 Hoechst (Thermo Scientific) and specimens were mounted in Prolong Gold anti-fadereagent (Life Technologies). Cells were analyzed by laser scanning using a Nikon A1RGaAsPConfocal Laser Microscope. For co-localization analyses, SKOV3 cells were treated with DMSO (control) or TG53 (1 μM) and plated on FN-coated chamber slides (BD Biosciences) for 72 hrs. […] Colocalization percentage was calculated by normalizing the pixels corresponding to Cy5 or Alexa Fluor 488 emissions to DAPI pixels in the same cell, followed by merging area of green with area of red and determination of average of overlap areas. A Student' t test was calculated to determine statistical significance of differences between drug treated and DMSO control treated cells.

| SMILES | cell proliferation as spheres (OVCAR5 cells) | OVCAR433 adhesion to the LP9 layer [1] | motility (scratch repair) (SKOV3 cells) | TG2 enzymatic activity (purified TG2) | FAK and Src phosphorylation [2] | colocalization of TG2 with integrin β1, pFAK, c-Src and pSrc [2] |
| --- | --- | --- | --- | --- | --- | --- |
| Cc1cc(N(C)C)nc(Nc2ccc(NC(=O)Cc3ccccc3)cc2)n1 [MT-4] | more potently than PTX alone or PTX and TG53 | dose-dependent inhibitory effect | inhibited | – | – | – |
| COc1ccc(Cl)cc1C(=O)Nc1ccc(Nc2nc(C)cc(N(C)C)n2)cc1 [TG53] | – | – | – | did not inhibit | marked decrease | significant decrease |
